Series [1] in a line: Chlorine stability of chlorinated HA and HASA55 solutions over 10 weeks (available chlorine, DPD). It is filed as physicochemical. As for the experimental part: (§1) Various aqueous electrophilic halogen solutions were used to dissolve HASA55 powder. Undiluted disinfexol stock solution was used as HOCl source, Clorox® germicidal bleach diluted 1:48 volumetrically was used as a NaOCl source, and a stock solution of Purtab prepared by dissolving 1 tablet in a quart of water was used as a NaDCC source. Various samples of HASA55 solutions chlorinated with HOCl, NaOCl, and NaDCC were prepared by dissolving HASA55 in the electrophilic halogen source solutions at stoichiometric molar ratios of 2:1, 1:1, 1:2, 1:4, and 1:8 HASA55:electrophilic halogen source for HOCl and NaOCl, and at stoichiometric molar ratios of 4:1, 2:1, 1:1, 1:2, and 1:4 HASA55:NaDCC. Various samples of HA monomers chlorinated with HOCl, NaOCl, and NaDCC were prepared by dissolving HA monomer in the electrophilic halogen source solutions at stoichiometric molar ratios of 2:1, 1:1, 1:2, 1:3, and 1:6 HA:electrophilic halogen source for HOCl and NaOCl, and at stoichiometric molar ratios of 4:1, 2:1, 1:1, 1:1.5, and 1:3 for HA:NaDCC. The resulting solutions were sealed and stored in air-tight bottles to assess the amount of available chlorine and the pH of the solution over time. Available chlorine concentrations were calculated according to a spectrophotometric method using a DPD indicator as detailed above and pH was calculated using a pH meter.

Series [2] deals with S. aureus. As to the kind of experiment: MIC testing of chlorinated HASA. It is filed as cell-based, Staphylococcus aureus. Conditions: for MIC: Staphylococcus aureus. As for the experimental part: (§2) NaDCC, NaOC, HOC, and HASA-Cl solutions were prepared at chlorine concentrations of 300, 250, 200, 150, 100, and 50 ppm and mixed with a S. aureus suspension containing […] as an organic load for 30 seconds. After 30 seconds, the mixtures were neutralized with Na2S2O3 to quench oxidative chlorine, added to tryptic soy broth (TSB), and incubated (e.g., for 48 hours at 37° C.). Following the incubation, samples were assessed for S. aureus growth inhibition to determine the minimum inhibitory concentration (MIC). […] To determine the minimum biocidal concentration (MBC), samples were plated on agar and viable colonies counted. […] The analysis was run in duplicate with a 8.34 log inoculum concentration of S. aureus in the first analysis and a 8.37 log inoculum concentration of S. aureus in the second analysis.
(§3) NaDCC, NaOCl, HOC, and HASA-Cl solutions were prepared at chlorine concentrations of 800, 700, 600, 500, 400, 300, 200, and 100 ppm and mixed with a suspension of S. aureus containing 10% FBS or 15% as an organic load and reacted for 1 minute or 5 minutes. After reacting, the mixtures were neutralized with Na2S2O3 to quench oxidative chlorine, added to tryptic soy broth (TSB), and incubated (e.g., for 48 hours at 37° C.). Following the incubation, samples were assessed for S. aureus growth inhibition to determine the MIC. […] To determine the MBC, samples were plated on agar and viable colonies counted. […] The analysis was run in duplicate with a 8.23 log inoculum concentration of S. aureus.
(§4) Three solutions of HASA-Cl (HASA-Cl_D, HASA-Cl_E, and HASA-Cl_F) were prepared by chlorinating HASA55 in aqueous HOCl at varying HASA55:chlorine stoichiometric molar ratios, isolating the chlorinated HASA55-Cl polymer, and dissolving the chlorinated polymer in water. The three HASA-Cl solutions and HASA-HOCl, NaDCC, NaOCl, and HOCl solutions were diluted to chlorine concentrations of 300, 250, 200, 150, 100, and 50 ppm, mixed with a suspension of S. aureus with 5% FBS organic load, and reacted for 30 seconds. After reacting, the mixtures were neutralized to remove oxidative chlorine, added to tryptic soy broth, and incubated (e.g. for 48 hours at 37° C.). Following the incubation, samples were assessed for S. aureus growth inhibition to determine the MIC. To determine the MBC, samples were plated on agar and viable colonies counted. […] The analysis was run in duplicate with a 8.34 log inoculum concentration of S. aureus in the first experiment and a 8.37 log inoculum concentration of S. aureus in the second experiment.

The test system of series [3] is S. aureus. As to the kind of experiment: MBC testing of chlorinated HASA. As to conditions: for MBC: Staphylococcus aureus. It is filed as cell-based, Staphylococcus aureus. The procedure:
as §2, §3, §4

A short description of series [4]: pH of chlorinated HA and HASA55 solutions over time. Type of series: physicochemical. Conditions: HOCl series, 10 weeks. The procedure:
as §1

Series [5] is described as follows: Residual chlorine content of dried chlorinated N-halamine coatings on SS304 coupons. Type of series: physicochemical. Conditions: for Estimated residual Cl (%): SS304 coupon. As for the experimental part:
HASA-Cl solutions were prepared according to procedures detailed in EXAMPLE 6 above. Stainless steel 304 (SS304) coupons with a dimension of 1″×1″ and thickness of 0.024″ were scrubbed with a sponge and 1% detergent (e.g., Liquinox®), rinsed with deionized water, and dried. To the dried SS304 coupons, a 1 mL sample of a HASA-Cl, HA-Cl, or electrophilic halogen solution was pipetted using a micropipette without rinsing or wiping the coupon after pipetting. The sample coupons coated with HASA-Cl HA-Cl, and electrophilic halogen sources, were stored at ambient temperature and humidity with indoor light exposure. […] HASA/HOCl solutions with high stoichiometric molar amounts of HASA (2:1 HASA:HOCl and 1:1 HASA:HOCl) formed coatings with a flaked dried polymer appearance, while the other solutions formed coatings with a stain-like appearance with a majority of the SS304 base substrate exposed.
To extract chlorine from the surface of a SS304 sample coupon, a sample coupon was added to a centrifuge tube containing 20 mL of deionized water, 200 mg of K1, and 10 drops of 4N acetic acid. The mixture containing the sample coupon was mixed by shaking (e.g. at 120 rpm for 10 minutes), and solution removed and added to a glass sample cell for analysis by spectrophotometry with a DPD indicator according to the procedure detailed above. The amount of chlorine was calculated against a chlorine standard curve. Chlorine density was calculated according to the following formula: […]
The bars are presented in the order Day 1, Day 2, Day 3, Day 7, and Day 28. […] At 28 days, the chlorine density of HASA/HOCl and HA/HOCl solutions decreased, to around half of the Day 1 chlorine density. […] Estimated residual chlorine percentages were calculated from the ratio of the amount of chlorine retrieved from the dried coating over the amount of chlorine deposited in the 1 mL solution. TABLE 19 summarizes the estimated residual chlorine percentages of HA/HOCl and HASA/HOCl solutions over the 28 days. Estimated residual chlorine percentages were stable for up to 1 week for HASA/HOCl solutions with stoichiometric molar ratios of HASA:HOCl higher than 1:2, aligning with the chlorine density data.

The mark [6] stands for this setting: 5% FBS organic load, 30 seconds (Table 18).
Where [7] appears, read: Exp 1, 5 FBS organic load, 30 seconds, 8.34 log inoculum, ppm chlorine.
Setting [8] is: Exp 2, 5 FBS organic load, 30 seconds, 8.37 log inoculum.
Where [9] appears, read: Exp 1, 5 FBS organic load, 30 seconds, 8.34 log inoculum.

In the case of `O=c1nc([O-])n(Cl)c(=O)n1Cl.[Na+]` [NaDCC, sodium dichloroisocyanurate], the “available chlorine over time (in words)” value in series [1] (NaDCC series, 6-week time period) is reported as “low available chlorine levels”. The available chlorine in series [1] (NaDCC series, Day 0) stood at 1120; in series [1] (NaDCC series, W 1) it was 967; in series [1] (NaDCC series, W 3), 753; in series [1] (NaDCC series, W 6) it was 530; in series [1] (NaDCC series, W 10) it was 330. Moreover, the MIC value is 100 ppm in the series with S. aureus [2] (setting [6]); 200 ppm against S. aureus [2] (10% FBS, 1 min); 200 ppm against S. aureus [2] (10% FBS, 5 min); 300 ppm in the series with S. aureus [2] (15% FBS, 1 min); 200 ppm in the series on S. aureus [2] (15% FBS, 5 min); 150 ppm against S. aureus [2] (setting [7]). The compound further registered an MIC value in the series with S. aureus [2] (setting [8]) of 100 ppm. In addition, the MBC value against S. aureus [3] (setting [6]) is 150 ppm; in the series with S. aureus [3] (10% FBS, 1 min), 200 ppm; against S. aureus [3] (10% FBS, 5 min) it was 200 ppm; against S. aureus [3] (15% FBS, 1 min), 300 ppm; against S. aureus [3] (15% FBS, 5 min), 200 ppm; in the series with S. aureus [3] (setting [9]), 150 ppm. Besides, the MBC value against S. aureus [3] (setting [8]) was found to be 150 ppm.

For the compound `OCl` [NaOCl, sodium hypochlorite], the “chlorine levels and pH over time (in words)” value in series [1] (NaOCl series) was “no chlorine loss and no change in pH”. Further, the MIC (commonly the lowest concentration that inhibits growth of the organism) in the series on S. aureus [2] (setting [6]) is 200 µg/mL; in the series on S. aureus [2] (1 min, 10% FBS) it was 400 µg/mL; against S. aureus [2] (1 min, 15% FBS) it was 500 µg/mL; in the series on S. aureus [2] (5 min, 10% FBS) it was 100 µg/mL; in the series on S. aureus [2] (5 min, 15% FBS), 100 µg/mL; against S. aureus [2] (setting [7]) it was 100 µg/mL. Inhibition of growth in the series with S. aureus [2] (setting [8]) (MIC) required 100 µg/mL. Moreover, the MBC value with S. aureus [3] (setting [8]) was determined as 250 ppm. Moreover, the MBC (commonly the smallest concentration meeting the test's criterion for killing) in the series with S. aureus [3] (setting [6]) was determined as 200 µg/mL; with S. aureus [3] (1 min, 10% FBS) it was 400 µg/mL; against S. aureus [3] (1 min, 15% FBS), 500 µg/mL; against S. aureus [3] (5 min, 10% FBS), 200 µg/mL; in the series with S. aureus [3] (5 min, 15% FBS), 400 µg/mL; with S. aureus [3] (setting [9]), 200 µg/mL.

As for `OCl` [HOCl, hypochlorous acid], the “chlorine loss (in words)” value in series [1] (HOCl series, 10 week period) is “lowest chlorine loss”. Also, the available chlorine was 707 mg/L in series [1] (HOCl series, Day 0); 727 mg/L in series [1] (HOCl series, W 0); 687 mg/L in series [1] (HOCl series, W 4); 637 mg/L in series [1] (HOCl series, W 6); 607 mg/L in series [1] (HOCl series, W 10); 1443 in series [1] (NaOCl series, Day 0). The available chlorine was 1447 in series [1] (NaOCl series, W 1); 1443 in series [1] (NaOCl series, W 3); 1520 in series [1] (NaOCl series, W 6); 1537 in series [1] (NaOCl series, W 10). The “pH over time (in words)” value in series [4] is “stable pH”. In addition, the MIC value was 150 ppm with S. aureus [2] (setting [6]); 300 ppm against S. aureus [2] (10% FBS, 1 min); 100 ppm in the series on S. aureus [2] (10% FBS, 5 min); 300 ppm with S. aureus [2] (15% FBS, 1 min); 200 ppm with S. aureus [2] (15% FBS, 5 min); 150 ppm in the series on S. aureus [2] (setting [7]). Besides, the MIC value in the series with S. aureus [2] (setting [8]) amounted to 100 ppm. The MBC value with S. aureus [3] (setting [6]) is reported as 150 ppm; against S. aureus [3] (10% FBS, 1 min), 300 ppm; in the series with S. aureus [3] (10% FBS, 5 min), 200 ppm; against S. aureus [3] (15% FBS, 1 min), 300 ppm; in the series with S. aureus [3] (15% FBS, 5 min), 300 ppm; against S. aureus [3] (setting [9]), 150 ppm. For the same compound, the MBC value in the series on S. aureus [3] (setting [8]) was 100 ppm. The “Estimated residual Cl (%)” value is listed as 0.1% in series [5] (1 mL deposited, Day 1); 0.2% in series [5] (Day 2); 0.3% in series [5] (Day 3); 0.1% in series [5] (Day 7); 0.2% in series [5] (Day 28). For the same compound, the “residual chlorine density (in words)” value in series [5] (SS304 coupons, Day 1) was “no residual chlorine density”.
